Test [1] addresses T1, KRAS G12V (Homo sapiens, UniProt P01116, G12V).
T1 construct: made in house; host or cells: E. coli, e.g. BL21 (DE3)
Nature of the test: HTRF assay, KRAS G12V interaction with SOS1. Format: biochemical. To be noted: bins <500 nM / 500 nM to 1000 nM, read-out: Inhibition of KRAS G12V (IC50).

The target of test [2] is T2, KRAS G12D (Homo sapiens, UniProt P01116, G12D).
T2 construct: made in house; host or cells: E. coli, e.g. BL21 (DE3)
Nature of the test: HTRF assay, KRAS G12D interaction with SOS1. To be noted: bins <500 nM / 500 nM to 1000 nM, read-out: Inhibition of KRAS G12D (IC50). Type of test: biochemical.

The test system of test [3] is MiaPaca2 cells. Nature of the test: Ras cellular assay, growth of cells with K-Ras G12C mutation. Type of test: cell-based. To be noted: Homo sapiens, MIA PaCa-2; cell proliferation assay; bins ≤500 nM / >500 nM; read-out: Inhibition of MiaPaca2 Cells (IC50). In a few lines:
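MIA PaCa-2 cells (K-Ras G12C, about 125-150 cells/well) grown in 0.25% soft agar over a 0.6% agar base, compound added on day 2 at 0.3% final DMSO. Growth read on day 10 by Cell Titer 96 AQueous absorbance (490 nm, reference 660 nm) against time-zero wells; IC50 from four-parameter fit.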

In test [4] the target is T3, KRAS WT (Homo sapiens, UniProt P01116).
T3 construct: made in house; host or cells: E. coli, e.g. BL21 (DE3)
T3 sequence (P01116 1-188 isoform P01116-2): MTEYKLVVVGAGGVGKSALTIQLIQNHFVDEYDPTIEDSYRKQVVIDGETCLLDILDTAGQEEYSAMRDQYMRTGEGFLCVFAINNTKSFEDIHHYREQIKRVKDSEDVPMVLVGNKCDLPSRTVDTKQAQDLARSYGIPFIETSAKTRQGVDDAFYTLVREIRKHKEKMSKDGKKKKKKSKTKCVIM
Nature of the test: HTRF assay, wildtype KRAS interaction with SOS1. Type of test: biochemical. To be noted: bins <500 nM / 500 nM to 1000 nM, read-out: Inhibition of KRAS WT (IC50). A general note: In TR-FRET formats the signal depends on donor and acceptor labels being close together.

For test [5], the target named is T4, KRAS G12S (Homo sapiens, UniProt P01116, G12S).
T4 construct: made in house; host or cells: E. coli, e.g. BL21 (DE3)
T4 sequence (P01116 1-188 isoform P01116-2 G12S): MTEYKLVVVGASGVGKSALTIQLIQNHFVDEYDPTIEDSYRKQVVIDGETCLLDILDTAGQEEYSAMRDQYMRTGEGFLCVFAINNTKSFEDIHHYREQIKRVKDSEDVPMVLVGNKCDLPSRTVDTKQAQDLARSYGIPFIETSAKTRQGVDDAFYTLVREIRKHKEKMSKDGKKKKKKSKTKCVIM
Put plainly: HTRF assay, KRAS G12S interaction with SOS1. Type of test: biochemical. To be noted: bins <500 nM / 500 nM to 1000 nM, read-out: Inhibition of KRAS G12S (IC50).

Where only a bound is given, the exact number is not on record here.

Data on five compounds can be found in US20260217735A1, “HETEROCYCLES AND USES THEREOF” (Kumquat Biosciences Inc., priority 2023, published 2026).

T2 sequence (P01116 1-188 isoform P01116-2 G12D): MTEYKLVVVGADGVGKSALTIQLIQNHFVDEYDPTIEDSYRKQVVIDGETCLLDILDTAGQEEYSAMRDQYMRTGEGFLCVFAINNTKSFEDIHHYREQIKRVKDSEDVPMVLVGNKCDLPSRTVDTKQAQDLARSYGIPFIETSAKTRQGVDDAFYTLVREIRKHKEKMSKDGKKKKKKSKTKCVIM
T1 sequence (P01116 1-188 isoform P01116-2 G12V): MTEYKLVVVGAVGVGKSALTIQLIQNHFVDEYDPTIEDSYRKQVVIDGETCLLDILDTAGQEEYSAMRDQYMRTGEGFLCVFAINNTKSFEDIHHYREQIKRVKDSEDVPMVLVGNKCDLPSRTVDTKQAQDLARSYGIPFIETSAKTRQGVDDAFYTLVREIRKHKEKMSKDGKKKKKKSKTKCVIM

For orientation: IC50 means the concentration needed to halve the response being measured. On to `CCN(c1nc(OC[C@@]23CCCN2C[C@H](F)C3)nc2c(F)c(-c3ccc(F)c4sc(N)c(C#N)c34)c(Cl)cc12)[C@@H]1CCN(C(=O)n2cnc(C)c2C)[C@@H]1C` [Compound 145, 2-amino-4-(6-chloro-4-(((2R,3R)-1-(4,5-dimethyl-1H-imidazole-1-carbonyl)-2-methylpyrrolidin-3-yl)(ethyl)amino)-8-fluoro-2-(((2R,7aS)-2-fluorotetrahydro-1H-pyrrolizin-7a(5H)-yl)methoxy)quinazolin-7-yl)-7-fluorobenzo[b]thiophene-3-carbonitrile], for which the half-maximal inhibitory concentration (IC50) in test [1] is under 500 nM; in test [2], under 500 nM; in test [3], at most 500 nM; in test [4] it was under 500 nM; in test [5] it was under 500 nM.

On to `Cc1ncn(C(=O)N2CC[C@@]23CCN(c2nc(OC[C@@]45CCCN4C[C@H](F)C5)nc4c(F)c(-c5ccc(F)c6sc(N)c(C#N)c56)c(Cl)cc24)C3)c1C` [Compound 147, 2-amino-4-(6-chloro-4-((R)-1-(4,5-dimethyl-1H-imidazole-1-carbonyl)-1,6-diazaspiro[3.4]octan-6-yl)-8-fluoro-2-(((2R,7aS)-2-fluorotetrahydro-1H-pyrrolizin-7a(5H)-yl)methoxy)quinazolin-7-yl)-7-fluorobenzo[b]thiophene-3-carbonitrile], for which the IC50 in test [1] was under 500 nM; in test [2], under 500 nM; in test [3], at most 500 nM; in test [4], under 500 nM; in test [5], under 500 nM.

In the case of `CCN(c1nc(OC[C@@]23CCCN2C[C@H](F)C3)nc2c(F)c(-c3ccc(F)c4sc(N)c(C#N)c34)c(C(F)(F)F)cc12)[C@@H]1CCN(C(=O)n2ccnc2C)[C@@H]1C` [Compound 148, 2-amino-4-(4-(ethyl((2R,3R)-2-methyl-1-(2-methyl-1H-imidazole-1-carbonyl)pyrrolidin-3-yl)amino)-8-fluoro-2-(((2R,7aS)-2-fluorotetrahydro-1H-pyrrolizin-7a(5H)-yl)methoxy)-6-(trifluoromethyl)quinazolin-7-yl)-7-fluorobenzo[b]thiophene-3-carbonitrile], the half-maximal inhibitory concentration (IC50) in test [1] is under 500 nM; in test [2] it was under 500 nM; in test [3], at most 500 nM; in test [4], under 500 nM; in test [5], under 500 nM.

Take `CCN(c1nc(OC[C@@]23CCCN2C[C@H](F)C3)nc2c(F)c(-c3ccc(F)c4sc(N)c(C#N)c34)c(Cl)cc12)[C@@H]1CCN(C(=O)n2cnc(C#N)c2C)[C@@H]1C` [Compound 149, 1-((2R,3R)-3-((7-(2-amino-3-cyano-7-fluorobenzo[b]thiophen-4-yl)-6-chloro-8-fluoro-2-(((2R,7aS)-2-fluorotetrahydro-1H-pyrrolizin-7a(5H)-yl)methoxy)quinazolin-4-yl)(ethyl)amino)-2-methylpyrrolidine-1-carbonyl)-5-methyl-1H-imidazole-4-carbonitrile]: the IC50 is under 500 nM in test [1]; under 500 nM in test [2]; at most 500 nM in test [3]; under 500 nM in test [4]; under 500 nM in test [5].

`Cc1cn(C(=O)N(C)C2CN(c3nc(OC[C@@]45CCCN4C[C@H](F)C5)nc4c(F)c(-c5ccc(F)c6sc(N)c(C#N)c56)c(Cl)cc34)CC2F)cn1` (stereo partly drawn) [Compound 151, N-(1-((R)-7-(2-amino-3-cyano-7-fluorobenzo[b]thiophen-4-yl)-6-chloro-8-fluoro-2-(((2R,7aS)-2-fluorotetrahydro-1H-pyrrolizin-7a(5H)-yl)methoxy)quinazolin-4-yl)-4-fluoropyrrolidin-3-yl)-N,4-dimethyl-1H-imidazole-1-carboxamide]: the IC50 was under 500 nM in test [1]; under 500 nM in test [2]; at most 500 nM in test [3]; under 500 nM in test [4]; under 500 nM in test [5].
